Reference: US12570606B2, “Myeloperoxidase imaging agents” (The General Hospital Corporation, priority 2016, dated 2026)
Counter-ions that a name gives are not always drawn. Like-named read-outs stand apart in the source and are kept apart here.

Assays:
[1] = target: T1, MPO (Homo sapiens, UniProt P05164); assay: In vitro color change (oligomerization) with MPO; format: biochemical; conditions: 2 mM, 37° C., 1 hr
T1 sequence (P05164 49-745): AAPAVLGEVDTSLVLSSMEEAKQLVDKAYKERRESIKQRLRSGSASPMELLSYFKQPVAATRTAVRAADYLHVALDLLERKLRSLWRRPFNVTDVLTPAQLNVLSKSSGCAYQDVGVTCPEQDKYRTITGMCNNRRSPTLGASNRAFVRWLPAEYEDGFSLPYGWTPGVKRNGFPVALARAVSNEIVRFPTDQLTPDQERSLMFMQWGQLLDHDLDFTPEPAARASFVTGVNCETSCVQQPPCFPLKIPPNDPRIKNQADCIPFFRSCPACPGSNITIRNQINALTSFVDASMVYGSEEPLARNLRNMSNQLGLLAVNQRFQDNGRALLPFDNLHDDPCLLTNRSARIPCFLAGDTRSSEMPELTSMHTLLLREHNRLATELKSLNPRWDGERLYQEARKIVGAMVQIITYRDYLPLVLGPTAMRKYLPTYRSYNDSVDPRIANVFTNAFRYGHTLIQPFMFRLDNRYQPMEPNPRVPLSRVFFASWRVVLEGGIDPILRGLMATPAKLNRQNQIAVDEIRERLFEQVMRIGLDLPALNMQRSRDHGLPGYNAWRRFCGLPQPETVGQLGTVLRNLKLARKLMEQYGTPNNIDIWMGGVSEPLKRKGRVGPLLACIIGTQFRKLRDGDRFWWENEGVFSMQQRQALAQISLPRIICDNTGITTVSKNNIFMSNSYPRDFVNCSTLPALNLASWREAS
Experimental: (§1) Each vial contains 2 mM of ^19F compound 9 in PBS (150 uL, 5% DMSO) and the following agents, and was incubated at 37° C. for 1 hr: • Vial 1: control (2 mM 19F […] only) • Vial 2: Glucose (6 μL, 1M), GOX (4 μL, 1 mg/mL); • Vial 3: H2O2 (2 μL), HRP (horseradish peroxidase, 1 μL); • Vial 4: H2O2(2 μL), MPO (10 μL): • Vial 5: H2O2 (2 μL), MPO (10 μL);

[2] = system: HRP (horseradish peroxidase); assay: In vitro color change (oligomerization) with horseradish peroxidase; format: biochemical; conditions: Vial 3: H2O2, HRP; 2 mM, 37° C., 1 hr
Experimental: as §1

[3] = target: T1, MPO; conditions: in vitro; cited from earlier work
[4] = target: T1, MPO; design: host or cells: transgenic mice overexpressing human MPO; conditions: in vivo, transgenic mice with overexpression of human MPO; cited from earlier work
[5] = Solubility of the hydrochloric acid salt; format: physicochemical; conditions: hydrochloric acid salt after Boc de-protection with 1M HCl
[6] = target: T2, purified human MPO (Homo sapiens, UniProt P05164); assay: Fluorescence molecular tomography (FMT) of MPO embedded in matrigel, sensitivity; format: in vivo, mouse; conditions: 2 nmol i.v. then SA-647, matrigel in thigh
T2 construct: purchased Lee Biosolutions, St. Louis, Mo
T2 sequence (P05164 49-745): T1 sequence (P05164 49-745)
From the text: (§2) Four to ten weeks old female C57BL/6J or MPO-knockout mice (from Jackson Laboratories, Bar Harbor, Me.) were used for all animal experiments. Mice were fed biotin free diet for 5 days before imaging with fluorescence molecular tomography (FMT) or fluorescence […] imaging (FRI).
To validate sensitivity of the Compound 3, different concentrations of purified human MPO (Lee Biosolutions, St. Louis, Mo.) and glucose oxidase (GOX, as a H2O2 donor, Affymetrix, Santa Clara, Calif.) were embedded in a mixture of matrigel (BD Bioscience, San Jose, Calif.) and minimal essential medium (MEM, Corning, Corning, N.Y.), and injected 400 μL of this mixture subcutaneously into the ventral aspect of the thigh. After 30 min, 2 nmol of Compound 3 in 100 μL phosphate buffered saline (PBS) was injected intravenously. One hour later, 25 μL of streptavidin AlexaFluor-647 (2 mg/mL, SA-647, Invitrogen, Carlsbad, Calif.) was injected intravenously, and FMT was performed every 15 minutes for a total of 60 minutes. Mice were imaged on a dedicated FMT system (Perkin Elmer, Waltham, Mass.) at 635 nm excitation and 655 nm emission.

[7] = target: T3, MPO activity (Mus musculus, UniProt P11247); assay: Staining of fresh-frozen ex vivo brain sections with Compound 3 and SA-647; conditions: Compound 3 followed by SA-647
T3 construct: from tissue; host or cells: C57Bl/6J mice: PMA-treated hind-paw, salmonella brain abscess (slices and frozen sections), S. pneumoniae cellulitis of the thigh
T3 sequence (P11247 139-718): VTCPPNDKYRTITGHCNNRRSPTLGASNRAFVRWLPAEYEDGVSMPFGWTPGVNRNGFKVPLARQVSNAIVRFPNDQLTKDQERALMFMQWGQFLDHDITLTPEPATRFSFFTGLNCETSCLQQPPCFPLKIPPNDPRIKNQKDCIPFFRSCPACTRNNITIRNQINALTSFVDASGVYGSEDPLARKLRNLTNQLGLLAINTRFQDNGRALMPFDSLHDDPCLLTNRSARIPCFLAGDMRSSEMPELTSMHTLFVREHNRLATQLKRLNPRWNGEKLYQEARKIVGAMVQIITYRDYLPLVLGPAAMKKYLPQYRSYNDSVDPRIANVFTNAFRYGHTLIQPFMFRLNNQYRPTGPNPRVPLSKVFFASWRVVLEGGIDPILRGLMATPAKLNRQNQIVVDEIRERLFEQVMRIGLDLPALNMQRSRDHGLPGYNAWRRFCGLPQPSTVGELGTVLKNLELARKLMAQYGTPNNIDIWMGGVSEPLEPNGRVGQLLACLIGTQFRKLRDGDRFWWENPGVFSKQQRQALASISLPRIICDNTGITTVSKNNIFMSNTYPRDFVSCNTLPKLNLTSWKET
Experimental: (§3) Female C57Bl/6J mice were then anesthetized and fixed in a stereotactic head frame (David Kopf Instruments, Tujunga, Calif.). 1-3×10^6 colony forming units (CFU) salmonella bacteria (ATCC #14028) were suspended in 2 μL PBS and slowly injected into the deep frontal white matter (2.0 mm lateral and 1.2 mm anterior to bregma) at a depth of 3.0 mm. 23 hours later, mice were injected intravenously with 2 nmol Compound 3 as above, followed by intravenous injection of SA-647. Mice were then anesthetized with Isoflurane and transcardially perfused with 20 mL of ice cold PBS. Brains were harvested and cut into 1 mm coronal slices using a brain slicer (Harvard Apparatus, Holliston, Mass.) and immediately underwent FRI as described above. Brains from mice injected with salmonella were also embedded in OCT (Sakura, Torrance, Calif.) and snap-frozen in chilled isopentane (Sigma) and stored at […] until sectioning. Serial 6 μm sections were cut on a cryostat (Thermo scientific). Sections were thawed at room temperature for 10-20 minutes and rehydrated in PBS for 10 minutes. Then sections were incubated in blocking buffer (1% horse serum in PBS) for 30 minutes at room temperature, and incubated with MPO specific probe diluted in incubation buffer (1% bovine serum albumin 1% normal donkey serum, 0.3% Triton X-100, and 0.01% sodium azide in PBS) overnight at 4° C. […]

[8] = target: T1, MPO; assay: Fluorescence reflectance imaging (FRI) of GOX/MPO/ABAH in matrigel, specificity; format: in vivo, mouse; conditions: 2 nmol i.v. then SA-647
From the text: as §2

[9] = system: MPO activity; assay: Irritant contact dermatitis (PMA) in vivo FRI; design: species or system mouse
Experimental: Female C57Bl/6J (wildtype, Jackson laboratories, Bar Harbor, Me.) and MPO-knockout (KO, Jackson laboratories) mice were treated topically with 0.08 μmol Phorbol 12-myristate 13-acetate (PMA, Sigma, St. Louis, Mo.) on one hind-paw and with vehicle on the other to induce irritant contact dermatitis. This model is well described in the literature and triggers rapid inflammation with influx of neutrophils into the skin. 6 hours after induction, mice were injected intravenously with either 2 nmol of Compound 3 or the non-specific analogue, Compound 18. 1 hour later, 2.5 μg SA-647 was injected intravenously to bind to the biotinylated Compound 3. Mice underwent in vivo imaging using a dedicated in vivo FRI system as described above in Example 11.

[10] = target: T3, MPO activity; assay: Brain abscess (salmonella), ex vivo FRI of coronal brain slices; format: in vivo; conditions: probe at 23 hours
Experimental: as §3

[11] = target: T4, MPO (Mus musculus, UniProt P11247); assay: CNR of Compound 3 in dermatitis, CNS abscess and cellulitis models; format: in vivo; design: from tissue; conditions: detection of dermatitis
T4 sequence (P11247 139-718): T3 sequence (P11247 139-718)

[12] = target: T3, MPO activity; assay: Bacterial cellulitis (Streptococcus pneumoniae), in vivo FRI of neutrophil extracellular traps
Experimental: Female C57Bl/6J mice were injected subcutaneously at the dorsal aspect of the thigh with 10^8 CFU of Streptococcus pneumonia (SPn, ATCC #6303) to induce bacterial cellulitis. 6 hours after induction, mice were injected intravenously with 2 nmol of […]. 1 hour later, 2.5 μg Strepavidin-AlexaFluor-647 were injected intravenously to bind to the biotinylated Compound 3. To distinguish neutrophil granule release (where MPO and other granule proteins are secreted into the phagosome or extracellular space) from NET formation (where chromatin strands with MPO are released by neutrophils), 1 μg of the membrane-impermeable DNA dye Sytox Green (Invitrogen) was injected intravenously at the same time. Mice then underwent in vivo imaging using a dedicated FRI system as described above in Example 11. AlexaFluor-647 bound to MPO-sensor was detected at 595-635 nm excitation and 675/50 nm emission. Sytox Green was detected at 460-490 nm excitation and 530/40 nm emission.

Molecule: O=C(Cc1c[nH]c2ccc(O)cc12)N[C@@H](Cc1c[nH]c2ccc(O)cc12)C(=O)NCCOCCOCCF [Compound 8, (S)—N-(2-(2-(2-fluoroethoxy)ethoxy)ethyl)-3-(5-hydroxy-1H-indol-3-yl)-2-(2-(5-hydroxy-1H-indol-3-yl)acetamido)propanamide]
- Color change ([1]; Vial 2: Glucose, GOX, no MPO): no color change
- Color change ([1]; Vials 4 and 5: H2O2, MPO): turned to yellow or brown
- Color change [2]: turned to yellow or brown

Molecule: sulfonaphthoaminophenyl fluorescein [SNAPF]
- CNR [3]: around 1.4
- CNR [4]: ~1.6

Molecule: CN(C)CCCC[C@H](NC(=O)[C@H](Cc1c[nH]c2ccc(O)cc12)NC(=O)Cc1c[nH]c2ccc(O)cc12)C(=O)NCCOCCOCC[18F] [Example 18, (S)-6-(dimethylamino)-N-(2-(2-(2-fluoro-^18F)ethoxy)ethoxy)ethyl)-2-((S)-3-(5-hydroxy-1H-indol-3-yl)-2-(2-(5-hydroxy-1H-indol-3-yl)acetamido)propanamido)hexanamide hydrochloric acid salt]
- Solubility [5]: increased solubility

Molecule: O=C(CCCC[C@@H]1SC[C@@H]2NC(=O)N[C@@H]21)N[C@@H](Cc1c[nH]c2ccc(O)cc12)C(=O)NCCc1c[nH]c2ccc(O)cc12 [Compound 3, N—((S)-3-(5-hydroxy-1H-indol-3-yl)-1-((2-(5-hydroxy-1H-indol-3-yl)ethyl)amino)-1-oxopropan-2-yl)-5-((3aS,4S,6aR)-2-oxohexahydro-1H-thieno[3,4-d]imidazol-4-yl)pentanamide]
- FMT fluorescence signal versus MPO concentration [6]: linear increase in signal
- Fluorescent signal on abscess and control sections [7]: increased fluorescent signal consistent with MPO activity in the ipsilateral hemisphere but not the contralateral hemisphere
- FRI fluorescence signal in absence of both MPO and GOX [8]: no appreciable fluorescence
- FRI fluorescence signal with MPO and GOX in matrigel [8]: increased fluorescent signal
- FRI fluorescence signal with MPO but without GOX [8]: no fluorescence was detectible
- Fluorescence intensity, PMA-treated hind-paw ([9]; MPO-KO mice): 36.9±9.8 RFU
- Fluorescence intensity, vehicle-treated hind-paw ([9]; MPO-KO mice): 43.9±10.8 RFU
- Fluorescence intensity, PMA-treated hind-paw ([9]; wildtype mice): 130.5±4.7 RFU
- Fluorescence intensity, vehicle-treated hind-paw ([9]; wildtype mice): 34.4±8.6 RFU
- Fluorescence intensity, contralateral hemisphere (mean value) [10]: 10972 RFU
- Fluorescence intensity, ipsilateral hemisphere (mean value) [10]: 43242 RFU
- CNR [11]: approximately 4
- Fluorescence signal, side injected with PBS ([12]; contralateral thigh): 49.4±15.5 RFUs
- Fluorescence signal, side injected with SPn ([12]; thigh, 6 hours after induction): 212.5±22.9 RFU
